Data published in publication PMC4932540, “Development of a New Radiofluorinated Quinoline Analog for PET Imaging of Phosphodiesterase 5 (PDE5) in Brain” (Pharmaceuticals, 2016).

Biological target: T1, PDE5A1 (Homo sapiens, UniProt O76074)
T1 construct: gene PDE5A; human recombinant PDE5A1 protein
Test: cAMP/cGMP-based PDE enzyme assay, recombinant protein
Format: biochemical

IC50: 1.86 nM
Structure (SMILES): CCc1cc(C#N)cc2c(NCc3ccc(OC)c(Cl)c3)c(COCCF)cnc12 [ICF24027, 4-[(3-Chloro-4-methoxybenzyl)amino]-8-ethyl-3-[(2-fluoroethoxy)methyl]quinoline-6-carbonitrile]
